Measured values reported in ChEMBL document CHEMBL1150267, “Synthesis and screening of mono- and di-aryl technetium and rhenium metallocarboranes. A new class of probes for the estrogen receptor” (J Med Chem, 2008).

Assay: physchem
Conditions: octanol/water
Description: Lipophilicity, log P of the compound

SMILES: c1ccc(Oc2ccccc2)cc1
- logP: 4.2
